Assay results taken from ChEMBL document CHEMBL1140529, “Androstene-3,5-dienes as ER-beta selective SERMs” (Bioorg Med Chem Lett, 2007).

Columns and labels:
Estrogen receptor beta [1] = target: T1, Estrogen receptor beta (Homo sapiens, UniProt Q92731)
Description: Binding affinity at human recombinant ERbeta

Androgen receptor = target: T2, Androgen receptor (Homo sapiens, UniProt P10275)
T2 sequence (P10275 whole entry): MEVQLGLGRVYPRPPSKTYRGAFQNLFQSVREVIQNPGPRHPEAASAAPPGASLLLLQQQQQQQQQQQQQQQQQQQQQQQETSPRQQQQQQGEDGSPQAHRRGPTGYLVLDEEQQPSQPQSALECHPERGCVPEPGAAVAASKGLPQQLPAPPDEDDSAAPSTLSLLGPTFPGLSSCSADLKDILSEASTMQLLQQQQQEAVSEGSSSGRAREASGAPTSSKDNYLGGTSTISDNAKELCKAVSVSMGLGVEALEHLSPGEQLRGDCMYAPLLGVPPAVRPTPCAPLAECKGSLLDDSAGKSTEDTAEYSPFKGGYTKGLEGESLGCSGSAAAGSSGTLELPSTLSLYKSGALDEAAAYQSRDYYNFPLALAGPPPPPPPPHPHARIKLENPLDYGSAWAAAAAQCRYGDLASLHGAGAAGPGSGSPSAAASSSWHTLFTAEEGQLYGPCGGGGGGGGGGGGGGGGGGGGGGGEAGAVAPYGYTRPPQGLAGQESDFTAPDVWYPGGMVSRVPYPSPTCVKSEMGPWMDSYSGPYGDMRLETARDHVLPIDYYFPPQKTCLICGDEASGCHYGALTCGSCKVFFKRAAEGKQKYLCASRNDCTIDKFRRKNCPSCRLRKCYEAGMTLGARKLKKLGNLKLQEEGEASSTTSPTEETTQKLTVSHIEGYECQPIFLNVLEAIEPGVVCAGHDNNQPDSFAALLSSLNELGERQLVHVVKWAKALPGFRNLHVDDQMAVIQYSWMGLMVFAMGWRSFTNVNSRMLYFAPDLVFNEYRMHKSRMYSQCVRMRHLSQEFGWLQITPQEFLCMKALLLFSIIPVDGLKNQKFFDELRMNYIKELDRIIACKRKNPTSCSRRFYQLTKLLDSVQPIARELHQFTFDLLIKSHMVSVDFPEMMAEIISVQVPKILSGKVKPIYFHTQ

Estrogen receptor beta [2] = target: T1, Estrogen receptor beta; format: functional, cell-based, HEK293
Description: Agonist activity at ERbeta expressed in HEK293 cells by transactivation assay

Estrogen receptor [3] = target: T3, Estrogen receptor (Homo sapiens, UniProt P03372)
T3 sequence (P03372 whole entry): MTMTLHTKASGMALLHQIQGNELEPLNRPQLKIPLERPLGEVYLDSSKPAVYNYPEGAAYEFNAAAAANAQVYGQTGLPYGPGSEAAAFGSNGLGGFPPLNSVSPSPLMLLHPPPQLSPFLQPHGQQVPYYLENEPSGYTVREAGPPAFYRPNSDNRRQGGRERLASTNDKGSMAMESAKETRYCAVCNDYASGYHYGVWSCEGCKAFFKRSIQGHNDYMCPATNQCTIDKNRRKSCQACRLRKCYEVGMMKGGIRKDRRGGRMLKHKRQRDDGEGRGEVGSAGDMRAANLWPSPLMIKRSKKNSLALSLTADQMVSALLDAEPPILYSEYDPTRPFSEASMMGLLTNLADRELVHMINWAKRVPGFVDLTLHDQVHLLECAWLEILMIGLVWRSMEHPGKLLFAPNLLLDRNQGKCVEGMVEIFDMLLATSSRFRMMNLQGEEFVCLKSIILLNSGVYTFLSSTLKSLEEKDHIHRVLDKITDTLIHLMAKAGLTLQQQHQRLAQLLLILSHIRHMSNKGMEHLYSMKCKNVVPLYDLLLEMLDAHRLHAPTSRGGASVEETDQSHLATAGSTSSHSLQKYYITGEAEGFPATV
Description: Binding affinity at human recombinant ERalpha

Estrogen receptor [4] = target: T3, Estrogen receptor; format: functional, cell-based, HEK293
Description: Agonist activity at ERalpha expressed in HEK293 cells by transactivation assay

T1 sequence (Q92731 whole entry): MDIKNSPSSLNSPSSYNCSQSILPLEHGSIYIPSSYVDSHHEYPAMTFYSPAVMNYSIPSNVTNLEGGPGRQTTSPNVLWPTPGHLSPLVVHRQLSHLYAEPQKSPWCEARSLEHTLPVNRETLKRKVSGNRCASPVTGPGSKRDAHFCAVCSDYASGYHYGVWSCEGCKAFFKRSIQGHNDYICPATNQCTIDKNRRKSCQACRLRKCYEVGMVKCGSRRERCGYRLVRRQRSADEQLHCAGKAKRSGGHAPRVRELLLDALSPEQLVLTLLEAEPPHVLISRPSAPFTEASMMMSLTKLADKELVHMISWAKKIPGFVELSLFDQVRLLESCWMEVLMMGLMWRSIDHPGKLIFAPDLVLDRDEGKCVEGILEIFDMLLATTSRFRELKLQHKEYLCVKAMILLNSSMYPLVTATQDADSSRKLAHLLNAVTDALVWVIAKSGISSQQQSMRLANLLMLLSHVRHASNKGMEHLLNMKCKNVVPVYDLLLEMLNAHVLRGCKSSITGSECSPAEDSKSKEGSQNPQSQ

C#CC1(O)CC[C@H]2[C@@H]3CC=C4C=C(C)CC[C@]4(C=C)[C@H]3CC[C@@]21C (single isomer, unassigned)
IC50 (Estrogen receptor beta [1]): 72 nM | IC50 (Androgen receptor): 1620 nM | EC50 (Estrogen receptor beta [2]): 31 nM | IC50 (Estrogen receptor [3]): 1850 nM | EC50 (Estrogen receptor [4]): 490 nM

C=C[C@]12CCC(C)=CC1=CC[C@@H]1[C@@H]2CC[C@@]2(C)[C@H]1CC[C@]2(C)O
IC50 (Estrogen receptor beta [1]): 53 nM | IC50 (Androgen receptor): 520 nM | EC50 (Estrogen receptor beta [2]): 480 nM | IC50 (Estrogen receptor [3]): 4380 nM | EC50 (Estrogen receptor [4]): > 1000 nM

C=C[C@]12CCC(=C)C=C1CC[C@H]1[C@@H]3CC[C@H](O)[C@@]3(C)CC[C@@H]12
IC50 (Estrogen receptor beta [1]): 120 nM | IC50 (Androgen receptor): 330 nM | EC50 (Estrogen receptor beta [2]): 230 nM | IC50 (Estrogen receptor [3]): > 10000 nM | EC50 (Estrogen receptor [4]): 430 nM

C#CC1(O)CC[C@H]2[C@@H]3CC=C4C[C@@H](O)CC[C@]4(C=C)[C@H]3CC[C@@]21C (single isomer, unassigned)
IC50 (Estrogen receptor [3]): 150 nM | EC50 (Estrogen receptor [4]): 130 nM

C=C[C@]12CCC(Cl)=CC1=CC[C@H]1[C@@H]3CC[C@H](O)[C@@]3(C)CC[C@@H]12
IC50 (Estrogen receptor beta [1]): 64 nM | EC50 (Estrogen receptor beta [2]): 170 nM | IC50 (Estrogen receptor [3]): 5740 nM | EC50 (Estrogen receptor [4]): 820 nM

C=C[C@]12CC[C@H](O)CC1=CC[C@@H]1[C@@H]2CC[C@@]2(C)[C@H]1CC[C@]2(C)O
EC50 (Estrogen receptor beta [2]): 190 nM | IC50 (Estrogen receptor [3]): 1050 nM | EC50 (Estrogen receptor [4]): > 1000 nM

C=C[C@]12CC[C@](C)(O)CC1=CC[C@H]1[C@@H]3CC[C@H](O)[C@@]3(C)CC[C@@H]12
IC50 (Estrogen receptor beta [1]): 255 nM | IC50 (Androgen receptor): 842 nM | EC50 (Estrogen receptor beta [2]): 240 nM | IC50 (Estrogen receptor [3]): 5300 nM | EC50 (Estrogen receptor [4]): > 1000 nM

C=C[C@]12CC[C@@](C)(O)CC1=CC[C@H]1[C@@H]3CC[C@H](O)[C@@]3(C)CC[C@@H]12
IC50 (Estrogen receptor beta [1]): 2490 nM | IC50 (Androgen receptor): 2610 nM | EC50 (Estrogen receptor beta [2]): > 1000 nM | IC50 (Estrogen receptor [3]): > 10000 nM | EC50 (Estrogen receptor [4]): > 1000 nM

C[C@]12CC[C@H]3[C@@H](CCC4=CC(=O)CC[C@@]43C)[C@@H]1CC[C@@H]2O [TESTOSTERONE]
IC50 (Estrogen receptor beta [1]): > 10000 nM

CC1=CC2=CC[C@H]3[C@@H]4CC[C@H](O)[C@@]4(C)CC[C@@H]3[C@@]2(C)CC1
IC50 (Estrogen receptor beta [1]): 9.4 nM | IC50 (Androgen receptor): 2250 nM | EC50 (Estrogen receptor beta [2]): 220 nM

C=C[C@]12CCC(CC)=CC1=CC[C@H]1[C@@H]3CC[C@H](O)[C@@]3(C)CC[C@@H]12
IC50 (Estrogen receptor beta [1]): 115 nM | IC50 (Androgen receptor): 500 nM | EC50 (Estrogen receptor beta [2]): 565 nM | IC50 (Estrogen receptor [3]): 3110 nM | EC50 (Estrogen receptor [4]): > 1000 nM

C=C[C@]12CCC(c3ccccc3)=CC1=CC[C@H]1[C@@H]3CC[C@H](O)[C@@]3(C)CC[C@@H]12
IC50 (Estrogen receptor beta [1]): 1760 nM | IC50 (Androgen receptor): 3160 nM | EC50 (Estrogen receptor beta [2]): > 1000 nM | IC50 (Estrogen receptor [3]): > 10000 nM | EC50 (Estrogen receptor [4]): > 1000 nM

C=C[C@]12CCC(C)=CC1=CC[C@H]1[C@@H]3CC[C@H](O)[C@@]3(C)CC[C@@H]12
IC50 (Estrogen receptor beta [1]): 9 nM | IC50 (Androgen receptor): 560 nM | EC50 (Estrogen receptor beta [2]): 69 nM | IC50 (Estrogen receptor [3]): 1440 nM | EC50 (Estrogen receptor [4]): > 1000 nM

C=C1C=C2CC[C@H]3[C@@H]4CC[C@H](O)[C@@]4(C)CC[C@@H]3[C@@]2(C)CC1
IC50 (Estrogen receptor beta [1]): 34 nM | IC50 (Androgen receptor): 40 nM | EC50 (Estrogen receptor beta [2]): 210 nM
